# Measurements published in patent US20250092056A1, “URACIL DERIVATIVES HAVING VIRUS REPLICATION INHIBITORY ACTIVITY AND PHARMACEUTICAL COMPOSITION COMPRISING THE SAME” (Shionogi & Co., Ltd., priority 2022, published 2025).
# Tested on: SARS-CoV-2
# Test: Cytopathic effect (CPE) suppression effect confirmation test using HEK293T/ACE2-TMPRSS2 cells
# Format: cell-based
# Conditions: Severe acute respiratory syndrome coronavirus 2, HEK-293T; 50% SARS-CoV-2 infected cell death inhibitory concentration; HEK293T/ACE2-TMPRSS2 cells; read-out: EC50
row,SMILES,EC50 [µM]
1,CC(C)(F)CCc1c(-c2ccc(F)c(Cl)c2)c(=O)n(-c2cncc(Cl)c2)c(=O)n1CC#N [Compound I-357],< 0.1
2,"N#CCn1c(N2CC[C@@](O)(C3CC3)C2)c(-c2ccc(F)c(Cl)c2)c(=O)n(-c2cncc(Cl)c2)c1=O (single isomer, unassigned) [Compound I-356]",< 0.1
3,Cc1cc(-c2c(N3CCC(F)(F)CC3)n(CC#N)c(=O)n(-c3cncc(Cl)c3)c2=O)cs1 [Compound I-328],< 0.1
4,N#CCn1c(N2CC(C(F)F)C2)c(-c2ccc(F)c(Cl)c2)c(=O)n(-c2cncc(C#N)c2)c1=O [Compound I-312],< 0.1
5,N#CCn1c(N2CC(OC(F)(F)F)C2)c(-c2ccc(F)c(Cl)c2)c(=O)n(-c2cncc(OCF)n2)c1=O [Compound I-408],< 0.1
6,N#CCn1c(N2CCC(C(F)F)CC2)c(-c2ccc(F)c(C(F)F)c2)c(=O)n(-c2cncc(C#N)c2)c1=O [Compound I-413],< 0.1
7,N#CCn1c(N2CC(O)(c3ncccn3)C2)c(-c2ccc(F)c(Cl)c2)c(=O)n(-c2cncc(OC(F)F)n2)c1=O [Compound I-378],< 0.1
8,N#CCn1c(C2CCC(F)(F)CC2)c(-c2ccnc(C(F)(F)F)c2)c(=O)n(-c2cncc(Cl)c2)c1=O [Compound I-266],0.1 to 1
9,CC(=O)Cn1c(C)c(-c2ccc(F)c(Cl)c2)c(=O)n(-c2cncc(Cl)c2)c1=O [Compound I-442],< 0.1
10,CN1CCN(c2c(-c3ccc(F)c(Cl)c3)c(=O)n(-c3cncc(Cl)c3)c(=O)n2CC#N)C1=O [Compound I-244],< 0.1
11,N#CCn1c(N2CC3(C2)CC(F)(F)C3)c(-c2ccc(F)c(F)c2)c(=O)n(-c2cncc(Cl)c2)c1=O [Compound I-315],< 0.1
12,N#CCn1c(N2CC(F)(F)C2)c(-c2ccc(F)c(Cl)c2)c(=O)n(-c2cncc(Cl)c2)c1=O [Compound I-290],< 0.1
13,N#CCn1c(N2CC(F)(C3CC3)C2)c(-c2ccc(F)c(Cl)c2)c(=O)n(-c2cncc(C#N)c2)c1=O [Compound I-338],< 0.1
14,CC(C)(O)[C@@H]1CCN(c2c(-c3ccc(F)c(Cl)c3)c(=O)n(-c3cncc(C#N)c3)c(=O)n2CC#N)C1 [Compound I-313],< 0.1
15,N#CCn1c(N2CC3(C2)CC(F)(F)C3)c(-c2ccc(F)c(Cl)c2)c(=O)n(-c2cncc(Br)c2)c1=O [Compound I-361],< 0.1
16,N#CCn1c(N2CC(OC(F)(F)F)C2)c(-c2ccc(F)c(Cl)c2)c(=O)n(-c2cnc3cc(F)ccn23)c1=O [Compound I-351],< 0.1
17,N#CCn1c(-c2nnc(C3CC3)s2)c(-c2ccc(F)c(Cl)c2)c(=O)n(-c2cncc(Cl)c2)c1=O [Compound I-359],< 0.1
18,"C[C@@H](C#N)n1c(N2CC[C@@](O)(C(F)F)C2)c(-c2ccc(F)c(C(F)F)c2)c(=O)n(-c2cncc(C#N)c2)c1=O (single isomer, unassigned) [Compound I-432]",< 0.1
19,N#CCn1c(N2CC3(C2)CC(F)(F)C3)c(-c2ccc(F)c(Cl)c2)c(=O)n(-c2cc(Cl)c[n+]([O-])c2)c1=O [Compound I-426],< 0.1
20,N#CCn1c(N2CC(C(F)(F)F)C2)c(-c2cc(F)c(F)c(C#N)c2)c(=O)n(-c2cncc(Cl)c2)c1=O [Compound I-368],< 0.1
21,N#CCn1c(N2CC(OC(F)(F)F)C2)c(-c2ccc(F)c(F)c2)c(=O)n(-c2cncc(Cl)c2)c1=O [Compound I-318],< 0.1
22,CC(C)(O)C1(F)CN(c2c(-c3ccc(F)c(Cl)c3)c(=O)n(-c3cncc(Cl)c3)c(=O)n2CC#N)C1 [Compound I-289],< 0.1
23,CC(C)(O)CCc1c(-c2ccc(F)c(Cl)c2)c(=O)n(-c2cncc(Cl)c2)c(=O)n1CC#N [Compound I-306],< 0.1
24,CC(C)(O)CCc1c(-c2ccc(F)c(Cl)c2)c(=O)n(-c2cncc(C#N)c2)c(=O)n1CC#N [Compound I-414],< 0.1
25,Cc1cncc(-n2c(=O)c(-c3ccc(F)c(Cl)c3)c(-c3ccccc3)n(CC#N)c2=O)c1 [Compound I-268],< 0.1
26,N#CCn1c(N2CCc3ccccc3C2)c(-c2ccc(F)c(Cl)c2)c(=O)n(-c2cncc(Cl)c2)c1=O [Compound I-253],< 0.1

# Biological target: Recombinant SARS-CoV-2 3CL Protease (Severe acute respiratory syndrome coronavirus 2 (2019-nCoV) (SARS-CoV-2), UniProt P0DTD1)
# Test: biochemical
# Format: biochemical
# Conditions: 50% SARS-CoV-2 3CL protease inhibitory concentration; read-out: IC50
row,SMILES,IC50 [µM]
1,CC(C)(F)CCc1c(-c2ccc(F)c(Cl)c2)c(=O)n(-c2cncc(Cl)c2)c(=O)n1CC#N [Compound I-357],< 0.01
2,"N#CCn1c(N2CC[C@@](O)(C3CC3)C2)c(-c2ccc(F)c(Cl)c2)c(=O)n(-c2cncc(Cl)c2)c1=O (single isomer, unassigned) [Compound I-356]",< 0.01
3,Cc1cc(-c2c(N3CCC(F)(F)CC3)n(CC#N)c(=O)n(-c3cncc(Cl)c3)c2=O)cs1 [Compound I-328],0.01 to 0.1
4,N#CCn1c(N2CC(C(F)F)C2)c(-c2ccc(F)c(Cl)c2)c(=O)n(-c2cncc(C#N)c2)c1=O [Compound I-312],< 0.01
5,N#CCn1c(N2CC(OC(F)(F)F)C2)c(-c2ccc(F)c(Cl)c2)c(=O)n(-c2cncc(OCF)n2)c1=O [Compound I-408],< 0.01
6,N#CCn1c(N2CCC(C(F)F)CC2)c(-c2ccc(F)c(C(F)F)c2)c(=O)n(-c2cncc(C#N)c2)c1=O [Compound I-413],< 0.01
7,N#CCn1c(N2CC(O)(c3ncccn3)C2)c(-c2ccc(F)c(Cl)c2)c(=O)n(-c2cncc(OC(F)F)n2)c1=O [Compound I-378],< 0.01
8,N#CCn1c(C2CCC(F)(F)CC2)c(-c2ccnc(C(F)(F)F)c2)c(=O)n(-c2cncc(Cl)c2)c1=O [Compound I-266],0.01 to 0.1
9,CC(=O)Cn1c(C)c(-c2ccc(F)c(Cl)c2)c(=O)n(-c2cncc(Cl)c2)c1=O [Compound I-442],0.01 to 0.1
10,CN1CCN(c2c(-c3ccc(F)c(Cl)c3)c(=O)n(-c3cncc(Cl)c3)c(=O)n2CC#N)C1=O [Compound I-244],0.01 to 0.1
11,N#CCn1c(N2CC3(C2)CC(F)(F)C3)c(-c2ccc(F)c(F)c2)c(=O)n(-c2cncc(Cl)c2)c1=O [Compound I-315],< 0.01
12,N#CCn1c(N2CC(F)(F)C2)c(-c2ccc(F)c(Cl)c2)c(=O)n(-c2cncc(Cl)c2)c1=O [Compound I-290],< 0.01
13,N#CCn1c(N2CC(F)(C3CC3)C2)c(-c2ccc(F)c(Cl)c2)c(=O)n(-c2cncc(C#N)c2)c1=O [Compound I-338],< 0.01
14,CC(C)(O)[C@@H]1CCN(c2c(-c3ccc(F)c(Cl)c3)c(=O)n(-c3cncc(C#N)c3)c(=O)n2CC#N)C1 [Compound I-313],< 0.01
15,N#CCn1c(N2CC3(C2)CC(F)(F)C3)c(-c2ccc(F)c(Cl)c2)c(=O)n(-c2cncc(Br)c2)c1=O [Compound I-361],< 0.01
16,N#CCn1c(N2CC(OC(F)(F)F)C2)c(-c2ccc(F)c(Cl)c2)c(=O)n(-c2cnc3cc(F)ccn23)c1=O [Compound I-351],< 0.01
17,N#CCn1c(-c2nnc(C3CC3)s2)c(-c2ccc(F)c(Cl)c2)c(=O)n(-c2cncc(Cl)c2)c1=O [Compound I-359],< 0.01
18,"C[C@@H](C#N)n1c(N2CC[C@@](O)(C(F)F)C2)c(-c2ccc(F)c(C(F)F)c2)c(=O)n(-c2cncc(C#N)c2)c1=O (single isomer, unassigned) [Compound I-432]",< 0.01
19,N#CCn1c(N2CC3(C2)CC(F)(F)C3)c(-c2ccc(F)c(Cl)c2)c(=O)n(-c2cc(Cl)c[n+]([O-])c2)c1=O [Compound I-426],< 0.01
20,N#CCn1c(N2CC(C(F)(F)F)C2)c(-c2cc(F)c(F)c(C#N)c2)c(=O)n(-c2cncc(Cl)c2)c1=O [Compound I-368],< 0.01
21,N#CCn1c(N2CC(OC(F)(F)F)C2)c(-c2ccc(F)c(F)c2)c(=O)n(-c2cncc(Cl)c2)c1=O [Compound I-318],< 0.01
22,CC(C)(O)C1(F)CN(c2c(-c3ccc(F)c(Cl)c3)c(=O)n(-c3cncc(Cl)c3)c(=O)n2CC#N)C1 [Compound I-289],< 0.01
23,CC(C)(O)CCc1c(-c2ccc(F)c(Cl)c2)c(=O)n(-c2cncc(Cl)c2)c(=O)n1CC#N [Compound I-306],< 0.01
24,CC(C)(O)CCc1c(-c2ccc(F)c(Cl)c2)c(=O)n(-c2cncc(C#N)c2)c(=O)n1CC#N [Compound I-414],< 0.01
